In EP1144368B1, “ACETYLENIC ALPHA-AMINO ACID-BASED SULFONAMIDE HYDROXAMIC ACID TACE INHIBITORS” (priority 1999, dated 2000):
Structures can show the parent of a compound that is named as a salt. Where two headings read alike, the source gives them in different places.

Tested on: THP-1 cells
Assay: THP-1 Soluble Protein Assay (LPS-stimulated; ELISA of TNF-a, TNF-R p75/80, TNF-R p55/60, IL-8)
Format: cell-based, human
Details: Homo sapiens
[1] = THP-1, read-out: THP % inhibition @ 3 µM, 3 µM
[2] = THP-1, 3 µM, read-out: THP % Inhibition @ 3µM

Row | SMILES | inhibition at 3 µM [1] [%] | inhibition at 3 µM [2] [%]
1 | CC#CCOc1ccc(S(=O)(=O)NC(C(=O)NO)c2ccc(OCCOCCOCCOC)cc2)cc1 (stereo not drawn) [Example 209, 2-({[4-(2-Butynyloxy)phenyl]sulfonyl}amino)-N-hydroxy-2-(4-{2-[2-(2-methoxyethoxy)ethoxy]ethoxy}phenyl)acetamide] | 75 | –
2 | CC#CCOc1ccc(S(=O)(=O)N2CCCN(C(=O)c3ccccc3)CC2C(=O)NO)cc1 (stereo not drawn) [Example 49, 4-Benzoyl-1-(4-but-2-ynyloxy-benzenesulfonyl)-[1,4]diazepane-2-carboxylic acid hydroxyamide] | – | 32
3 | CC#CCOc1ccc(S(=O)(=O)N(Cc2cccnc2)C(CSCc2ccccc2)C(=O)NO)cc1 (stereo not drawn) [Example 157, 3-(Benzylthio)-2-[[[4-(2-butynyloxy)phenyl]sulfonyl]pyridin-3-ylmethylamino]-N-hydroxypropanamide] | 79 | –
4 | CC#CCOc1ccc(S(=O)(=O)N(C)C(C(=O)NO)c2ccc(OCCN3CCN(C(=O)OC(C)(C)C)CC3)cc2)cc1 (stereo not drawn) [Example 185, tert-butyl 4-(2-{4-[1-[{[4-(2-butynyloxy)phenyl]sulfonyl}(methyl)amino]-2-(hydroxyamino)-2-oxoethyl]phenoxy}ethyl)-1-piperazinecarboxylate] | 89 | –
5 | CCC#CCOc1ccc(S(=O)(=O)N2CCSC(C)(C)[C@@H]2C(=O)NO)cc1 [Example 259, (3S)-N-Hydroxy-2,2-dimethyl-4-{[4-(2-pentynyloxy)phenyl]sulfonyl}-3-thiomorpholine carboxamide] | 92 | –
6 | CC#CCOc1ccc(S(=O)(=O)N2C[C@H](CC(=O)O)SC(C)(C)[C@@H]2C(=O)NO)cc1 [Example 278, {(2S,5S)-4-{[4-(2-Butynyloxy)phenyl]sulfonyl}-5-[(hydroxyamino)carbonyl]-6,6-dimethylthiomorpholinyl}acetic acid] | – | 89
7 | CC#CCOc1ccc(S(=O)(=O)N(C)C(C(=O)NO)c2ccc(OCCCN)cc2)cc1 (stereo not drawn) [Example 188, 2-[4-(3-Aminopropoxy)phenyl]-2-[{[4-(2-butynyloxy)phenyl]sulfonyl}(methyl)amino]-N-hydroxyacetamide] | 94 | –
8 | CC(C)(C)OC(=O)NCC#CCOc1ccc(S(=O)(=O)N2CCSC(C)(C)C2C(=O)NO)cc1 (stereo not drawn) [Example 266, tert-Butyl 4-[4-({3-[(hydroxyamino)carbonyl]-2,2-dimethyl-4-thiomorpholinyl}sulfonyl)phenoxy]-2-butynylcarbamate] | 79 | –
9 | CC#CCOc1ccc(S(=O)(=O)N(C)[C@@H](C(=O)NO)c2ccc(O[C@H]3CCNC3)cc2)cc1 [Example 190, (2R)-2-[{[4-(2-Butynyloxy)phenyl]sulfonyl}(methyl)amino]-N-hydroxy-2-{4-[(3S)-pyrrolidinyloxy]phenyl}ethanamide] | 94 | –
10 | CC#CCOc1ccc(S(=O)(=O)N2CCS(=O)(=O)C(C)(C)[C@@H]2C(=O)NO)cc1 [Example 257, (3S)-4-{[4-(2-Butynyloxy)phenyl]sulfonyl}-N-hydroxy-2,2-dimethyl-3-thiomorpholine carboxamide 1,1-dioxide] | 91 | –
11 | CC#CCOc1ccc(S(=O)(=O)N2[C@H](C)CSC(C)(C)[C@@H]2C(=O)NO)cc1 [Example 271, (3S,5R)-4-{[4-(2-Butynyloxy)phenyl]sulfonyl}-N-hydroxy-2,2,5-trimethyl-3-thiomorpholinecarboxamide] | – | 82
12 | CC#CCOc1ccc(S(=O)(=O)N(C)C(C(=O)NO)C(C)(C)SC)cc1 (stereo not drawn) [Example 149, 2-[(4-But-2-ynyloxy-benenesulfonyl)-methyl-amino]-N-hydroxy-3-methyl-3-methylsulfanyl-butyramide] | 88 | –
13 | CC#CCOc1ccc(S(=O)(=O)NC(C(=O)NO)c2ccc(OCCN3CCOCC3)cc2)cc1 (stereo not drawn) [Example 206, 2-({[4-(2-Butynyloxy)phenyl]sulfonyl}amino)-N-hydroxy-2-{4-[2-(4-morpholinyl)ethoxy]phenyl}acetamide] | 70 | –
14 | CC#CCOc1ccc(S(=O)(=O)N(Cc2cccnc2)C2(C(=O)NO)CCCCC2)cc1 [Example 137, 1-[{[4-(2-Butynyloxy)phenyl]sulfonyl}(3-pyridinylmethyl)amino] N-hydroxycyclohexanecarboxamide] | 0 | –
15 | CC#CCOc1ccc(S(=O)(=O)N2C[C@H](C)SC(C)(C)[C@@H]2C(=O)NO)cc1 [Example 272, (3S,6S)-4-{[4-(2-Butynyloxy)phenyl]sulfonyl}-N-hydroxy-2,2,6-trimethyl-3-thiomorpholinecarboxamide] | – | 92
16 | CC#CCOc1ccc(S(=O)(=O)N2CCCS(=O)(=O)C[C@@H]2C(=O)NO)cc1 [Example 175] | – | 83
17 | CC1(C)SCCN(S(=O)(=O)c2ccc(OCC#CCN)cc2)C1C(=O)NO (stereo not drawn) [Example 265, 4-({4-[(4-Amino-2-butynyl)oxy]phenyl}sulfonyl)-N-hydroxy-2,2-dimethyl-3-thiomorpholine carboxamide] | 40 | –
18 | CC#CCOc1ccc(S(=O)(=O)N(CC)C(C(=O)NO)C(C)C)cc1 (stereo not drawn) [Example 108, 2-[(4-But-2-ynyloxy-benzenesulfonyl)-ethyl-amino]-N-hydroxy-3-methyl-butyramide] | 76 | –

Row | SMILES | inhibition at 3 µM [1] [%] | inhibition at 3 µM [2] [%]
19 | CC#CCOc1ccc(S(=O)(=O)N(C)C(C(=O)NO)c2ccc(OCCCNS(C)(=O)=O)cc2)cc1 (stereo not drawn) [Example 197, 2-[{[4-(2-Butynyloxy)phenyl]sulfonyl}(methyl)amino]-N-hydroxy-2-(4-{3-[(methylsulfonyl)amino]propoxy}phenyl)acetamide] | 94 | –
20 | CC#CCOc1ccc(S(=O)(=O)N(CC2CC2)C(C(=O)NO)C(C)C)cc1 (stereo not drawn) [Example 112, 2-[(4-But-2-ynyloxy-benzenesulfonyl)-cyclopropylmethyl-amino]-N-hydroxy-3-methyl-butyramide] | 50 | –
21 | CC#CCOc1ccc(S(=O)(=O)N(C)C(C(=O)NO)C(C)(C)SCCC)cc1 (stereo not drawn) [Example 151, 2-[(4-But-2-ynyloxy-benenesulfonyl)-methyl-amino]-N-hydroxy-3-methyl-3-propylsulfanyl-butyramide] | 82 | –
22 | CC#CCOc1ccc(S(=O)(=O)N2[C@@H](C(=O)NO)C(C)(C)SC[C@@H]2C)cc1 [Example 270, (3S,5S)-4-{[4-(2-Butynyloxy)phenyl]sulfonyl}-N-hydroxy-2,2,5-trimethyl-3-thiomorpholinecarboxamide] | – | 62
23 | CC#CCOc1ccc(S(=O)(=O)NC(C(=O)NO)c2ccc(O)cc2)cc1 (stereo not drawn) [Example 176, 2-({[4-(2-Butynyloxy)phenyl]sulfonyl}amino)-N-hydroxy-2-(4-hydroxyphenyl)acetamide] | 89 | –
24 | CC#CCOc1ccc(S(=O)(=O)N2CCN(C(=O)N(C)c3ccccc3)CC2C(=O)NO)cc1 (stereo not drawn) [Example 220, 4-(4-But-2-ynyloxy-benzenesulfonyl)-piperazine-1,3-dicarboxylic acid 3-hydroxyamide 1-(methyl-phenyl-amide)] | 60 | –
25 | CC#CCOc1ccc(S(=O)(=O)N2C[C@@H](CN)SC(C)(C)[C@@H]2C(=O)NO)cc1 [Example 275, (3S,6R)-Trans-6-(aminomethyl)-4-{[4-(2-butynyloxy)phenyl]sulfonyl}-N-hydroxy-2,2-dimethyl-3-thiomorpholinecarboxamide hydrochloride] | – | 82
26 | CC#CCOc1ccc(S(=O)(=O)N2CCN(C(=O)CN)CC2C(=O)NO)cc1 (stereo not drawn) [Example 230, 4-Aminoacetyl-1-(4-but-2-ynyloxy-benzenesulfonyl)-piperazine-2-carboxylic acid hydroxyamide] | 27 | –
27 | CC#CCOc1ccc(S(=O)(=O)N(C)[C@@H](C(=O)NO)C2CCC(N(CC)CC)CC2)cc1 (stereo partly drawn) [Example 128, ((2R)-{[4-(2-Butynyloxy)phenyl]sulfonyl}(methyl)amino)[(4-diethylamino)cyclohexyl]-N-hydroxyethamide] | 51 | –
28 | CC#CCOc1ccc(S(=O)(=O)N(C)C(C(=O)NO)C2CCCCC2)cc1 (stereo not drawn) [Example 115, 2-[(4-But-2-ynyloxy-benzenesulfonyl)-methyl-amino]-2-cyclohexyl-N-hydroxy-acetamide] | 89 | –
29 | CC1(C)SCCN(S(=O)(=O)c2ccc(OCC#CCCO)cc2)C1C(=O)NO (stereo not drawn) [Example 244, N-Hydroxy-4-({4-[(5-hydroxy-2-pentynyl)oxy]phenyl}sulfonyl)-2,2-dimethyl-3-thiomorpholine carboxamide] | 57 | –
30 | CC1(C)SCCN(S(=O)(=O)c2ccc(OCC#CCOCc3ccccc3)cc2)C1C(=O)NO (stereo not drawn) [Example 247, 4-[(4-{[4-(Benzyloxy)-2-butynyl]oxy}phenyl)sulfonyl]-N-hydroxy-2,2-dimethyl-3-thiomorpholine carboxamide] | 57 | –
31 | CC#CCOc1ccc(S(=O)(=O)N(CCCCN(CC)CC)C(C(=O)NO)C(C)C)cc1 (stereo not drawn) [Example 121, 2-{{[4-(2-Butynyloxy)phenyl]sulfonyl}[4-(diethylamino)butyl]amino}-N-hydroxy-3-methylbutanamide] | 65 | –
32 | CC#CCOc1ccc(S(=O)(=O)N2Cc3ccccc3CC2C(=O)NO)cc1 (stereo not drawn) [Example 41, 2-(4-But-2-ynyloxy-benzenesulfonyl)-1,2,3,4-tetrahydro-isoquinoline-3-carboxylic acid hydroxyamide] | 93 | –
33 | CC#CCOc1ccc(S(=O)(=O)N(CCN2CCOCC2)C(C(=O)NO)C(C)C)cc1 (stereo not drawn) [Example 123, 2-[[[4-(2-Butynyloxy)phenyl]sulfonyl][2-(4-morpholinyl)ethyl]amino]-N-hydroxy-3-methylbutanamide] | 35 | –
34 | CC#CCOc1ccc(S(=O)(=O)N(C)C(C(=O)NO)c2ccc(OCCCNC(C)=O)cc2)cc1 (stereo not drawn) [Example 194, 2-{4-[3-(Acetylamino)propoxy]phenyl}-2-[{[4-(2-butynyloxy)phenyl]sulfonyl}(methyl)amino]-N-hydroxyacetamide] | 94 | –
35 | CC#CCOc1ccc(S(=O)(=O)N(CC#CCNC)C(C(=O)NO)C(C)C)cc1 (stereo not drawn) [Example 127, 2-{{[4-(2-Butynyloxy)phenyl]sulfonyl}[4-(methylamino)-2-butynyl]amino}-N-hydroxy-3-methylbutanamide] | 83 | –
36 | CC#CCOc1ccc(S(=O)(=O)N2CC[S+]([O-])C(C)(C)C2C(=O)NO)cc1 (single isomer, unassigned) [Example 256] | 92 | –
